US20150105252A1, “SUBSTITUTED PYRAZOLES AS HERBICIDES” (E I DU PONT DE NEMOURS AND COMPANY, priority 2013, published 2015)

Experiments:
[1] = system: barnyardgrass; experiment: Test A preemergence; format: in vivo, Echinochloa crus-galli; conditions: preemergence
Summary of the method: (§1)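 Greenhouse test in loam soil/sand blend; compounds formulated in non-phytotoxic solvent with surfactant, applied as preemergence directed soil spray or postemergence to plants 2–10 cm tall at one- to two-leaf stage. Injury rated visually versus untreated controls after approximately 10 days on a 0 (no effect) to 100 (complete control) scale.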

[2] = system: crabgrass, large; experiment: Test A postemergence; format: in vivo, Digitaria sanguinalis
Summary of the method: as §1

[3] = system: rice; experiment: Test B flood; format: in vivo, Oryza sativa; conditions: 250 g ai/ha, visual rating on 0 to 100 scale (0 no effect, 100 complete control), 13 to 15 days
Summary of the method: (§2)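 Visual ratings (0 = no effect, 100 = complete control) versus untreated controls were taken 13–15 days after treatment of greenhouse plants. Treatment was added to paddy water held at 3 cm depth on 2-leaf-stage seedlings.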

[4] = system: ducksalad; experiment: Test B flood; format: in vivo, Heteranthera limosa; conditions: 250 g ai/ha, visual rating on 0 to 100 scale (0 no effect, 100 complete control), 13 to 15 days
Summary of the method: as §2

[5] = system: lambsquarters; experiment: Test C preemergence; format: in vivo, Chenopodium album; conditions: preemergence; for Plant response rating, Lambsquarters: 125 g ai/ha, scale 0 to 100, 0 = no effect, 100 = complete control
Summary of the method: (§3)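 Scores of 0 (no effect) to 100 (complete control) were assigned by eye after 13–15 days, comparing treated pots with controls. Soil-applied (preemergence) treatments went onto seeds in loam and sand; foliar (postemergence) treatments onto 1- to 4-leaf plants in peat medium.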

[6] = system: morningglory; experiment: Test C preemergence; format: in vivo, Ipomoea coccinea; conditions: preemergence; for Plant response rating, Morningglory: 125 g ai/ha, scale 0 to 100, 0 = no effect, 100 = complete control
Summary of the method: as §3

[7] = system: nutsedge, yellow; experiment: Test C preemergence; format: in vivo, Cyperus esculentus; conditions: preemergence; for Plant response rating, Nutsedge, Yellow: 125 g ai/ha, scale 0 to 100, 0 = no effect, 100 = complete control
Summary of the method: as §3

[8] = system: waterhemp; experiment: Test C preemergence; format: in vivo, Amaranthus rudis; conditions: preemergence; for Plant response rating, Waterhemp: 125 g ai/ha, scale 0 to 100, 0 = no effect, 100 = complete control
Summary of the method: as §3

[9] = system: velvetleaf; experiment: Test C preemergence; format: in vivo, Abutilon theophrasti; conditions: preemergence; for Plant response rating, Velvetleaf: 125 g ai/ha, scale 0 to 100, 0 = no effect, 100 = complete control
Summary of the method: as §3

[10] = system: johnsongrass; experiment: Test C postemergence; format: in vivo, Sorghum halepense; conditions: for Plant response rating (scale of 0 to 100 where 0 is no effect and 100 is complete control), Johnsongrass: Postemergence, 31 g ai/ha, visually evaluated after 13 to 15 days; for Johnsongrass plant response rating / Plant response rating, Johnsongrass: postemergence; for Johnsongrass plant response rating: 62 g ai/ha, scale 0 to 100
Summary of the method: as §3

[11] = system: nutsedge, yellow; experiment: Test C postemergence; format: in vivo, Cyperus esculentus; conditions: for Plant response rating (scale of 0 to 100 where 0 is no effect and 100 is complete control), Nutsedge, Yellow: Postemergence, 31 g ai/ha, visually evaluated after 13 to 15 days; for Nutsedge, Yellow plant response rating / Plant response rating, Nutsedge, Yellow: postemergence; for Nutsedge, Yellow plant response rating: 62 g ai/ha, scale 0 to 100
Summary of the method: as §3

[12] = system: soybean; experiment: Test C postemergence; format: in vivo, Glycine max; conditions: for Plant response rating, Soybean / Soybean plant response rating: postemergence; for Plant response rating, Soybean: 250 g ai/ha, scale 0 to 100 (0 no effect, 100 complete control); for Soybean plant response rating: 125 g ai/ha, scale 0 to 100, 0 no effect, 100 complete control
Summary of the method: as §3

[13] = system: kochia; experiment: Test C postemergence; format: in vivo, Kochia scoparia; conditions: for Plant response rating (scale of 0 to 100 where 0 is no effect and 100 is complete control), Kochia: Postemergence, 31 g ai/ha, visually evaluated after 13 to 15 days; for Kochia plant response rating / Plant response rating, Kochia: postemergence; for Kochia plant response rating: 62 g ai/ha, scale 0 to 100
Summary of the method: as §3

[14] = 125 g ai/ha, visual injury, 0 to 100 scale, approx. 10 days
[15] = 500 g ai/ha, visual injury after approx. 10 days, 0 to 100 scale (0 no effect, 100 complete control)
[16] = Postemergence, 500 g ai/ha, 0 to 100 scale (0 no effect, 100 complete control)
[17] = postemergence, 125 g ai/ha, about 10 days, visual rating on 0 to 100 scale (0 no effect, 100 complete control)
[18] = 31 g ai/ha, visual rating, scale 0 to 100 (0 no effect, 100 complete control), 13 to 15 days
[19] = 62 g ai/ha, scale 0 to 100 (0 no effect, 100 complete control), 13 to 15 days
[20] = 250 g ai/ha, scale 0 to 100, 0 is no effect, 100 is complete control
[21] = 250 g ai/ha, scale 0 to 100 (0 no effect, 100 complete control)
[22] = 125 g ai/ha, scale 0 to 100, 0 no effect, 100 complete control

O=C(NC1CC1)c1cc(CCCl)n(Cc2ccnc(C(F)(F)F)c2)n1 [Compound 144]
Barnyardgrass plant response rating [1, 14]: 100
Barnyardgrass plant response rating [1, 15]: 100
Crabgrass, Large plant response rating [2, 16]: 90
Crabgrass, Large plant response rating [2, 17]: 90
Plant response rating, Rice [3]: 0
Plant response rating, Ducksalad [4]: 95
Lambsquarters plant response rating [5, 18]: 95
Lambsquarters plant response rating [5, 19]: 98
Plant response rating, Lambsquarters ([5]; 13 to 15 days): 98
Lambsquarters plant response rating [5, 20]: 98
Morningglory plant response rating [6, 18]: 60
Morningglory plant response rating [6, 19]: 100
Plant response rating, Morningglory ([6]; 13 to 15 days): 100
Morningglory plant response rating [6, 20]: 100
Nutsedge, Yellow plant response rating [7, 18]: 0
Nutsedge, Yellow plant response rating [7, 19]: 45
Plant response rating, Nutsedge, Yellow ([7]; 13 to 15 days): 65
Nutsedge, Yellow plant response rating [7, 20]: 90
Waterhemp plant response rating [8, 18]: 98
Waterhemp plant response rating [8, 19]: 98
Plant response rating, Waterhemp ([8]; 13 to 15 days): 100
Waterhemp plant response rating [8, 20]: 100
Velvetleaf plant response rating [9, 18]: 15
Velvetleaf plant response rating [9, 19]: 75
Plant response rating, Velvetleaf ([9]; 13 to 15 days): 100
Velvetleaf plant response rating [9, 20]: 100
Plant response rating (scale of 0 to 100 where 0 is no effect and 100 is complete control), Johnsongrass [10]: 5
Johnsongrass plant response rating [10]: 5
Plant response rating, Johnsongrass [10, 21]: 15
Plant response rating, Johnsongrass [10, 22]: 10
Plant response rating (scale of 0 to 100 where 0 is no effect and 100 is complete control), Nutsedge, Yellow [11]: 10
Nutsedge, Yellow plant response rating [11]: 5
Plant response rating, Nutsedge, Yellow [11, 21]: 35
Plant response rating, Nutsedge, Yellow [11, 22]: 5
Plant response rating (scale of 0 to 100 where 0 is no effect and 100 is complete control), Soybean ([12]; Postemergence, 31 g ai/ha, visually evaluated after 13 to 15 days): 35
Plant response rating, Soybean [12]: 95
Soybean plant response rating [12]: 75
Plant response rating (scale of 0 to 100 where 0 is no effect and 100 is complete control), Kochia [13]: 75
Kochia plant response rating [13]: 85
Plant response rating, Kochia [13, 21]: 95
Plant response rating, Kochia [13, 22]: 95

CCOc1cc(C(=O)NOC(C)C)nn1Cc1ccnc(C(F)(F)F)c1 [Compound 153]
Barnyardgrass plant response rating [1, 14]: 90
Barnyardgrass plant response rating [1, 15]: 100
Crabgrass, Large plant response rating [2, 16]: 100
Crabgrass, Large plant response rating [2, 17]: 100
Plant response rating, Rice [3]: 40
Plant response rating, Ducksalad [4]: 90
Lambsquarters plant response rating [5, 18]: 85
Lambsquarters plant response rating [5, 19]: 98
Plant response rating, Lambsquarters ([5]; 13 to 15 days): 98
Lambsquarters plant response rating [5, 20]: 100
Morningglory plant response rating [6, 18]: 30
Morningglory plant response rating [6, 19]: 80
Plant response rating, Morningglory ([6]; 13 to 15 days): 100
Morningglory plant response rating [6, 20]: 100
Nutsedge, Yellow plant response rating [7, 18]: 20
Nutsedge, Yellow plant response rating [7, 19]: 75
Plant response rating, Nutsedge, Yellow ([7]; 13 to 15 days): 85
Nutsedge, Yellow plant response rating [7, 20]: 95
Waterhemp plant response rating [8, 18]: 60
Waterhemp plant response rating [8, 19]: 100
Plant response rating, Waterhemp ([8]; 13 to 15 days): 100
Waterhemp plant response rating [8, 20]: 100
Velvetleaf plant response rating [9, 18]: 10
Velvetleaf plant response rating [9, 19]: 60
Plant response rating, Velvetleaf ([9]; 13 to 15 days): 90
Velvetleaf plant response rating [9, 20]: 100
Plant response rating (scale of 0 to 100 where 0 is no effect and 100 is complete control), Johnsongrass [10]: 0
Johnsongrass plant response rating [10]: 5
Plant response rating, Johnsongrass [10, 21]: 5
Plant response rating, Johnsongrass [10, 22]: 0
Plant response rating (scale of 0 to 100 where 0 is no effect and 100 is complete control), Nutsedge, Yellow [11]: 5
Nutsedge, Yellow plant response rating [11]: 5
Plant response rating, Nutsedge, Yellow [11, 21]: 15
Plant response rating, Nutsedge, Yellow [11, 22]: 20
Plant response rating, Soybean [12]: 40
Soybean plant response rating [12]: 35
Plant response rating (scale of 0 to 100 where 0 is no effect and 100 is complete control), Kochia [13]: 50
Kochia plant response rating [13]: 70
Plant response rating, Kochia [13, 21]: 90
Plant response rating, Kochia [13, 22]: 85
